Literature values as cited in paper PMC5731934, “Modifying glycyrrhetinic acid liposomes with liver-targeting ligand of galactosylated derivative: preparation and evaluations” (Oncotarget, 2017).

Design: method as in PMID 11752037

solubility in water: < 10 µg/mL
Structure (SMILES): CC1(C)[C@@H](O)CC[C@]2(C)[C@H]3C(=O)C=C4[C@@H]5C[C@@](C)(C(=O)O)CC[C@]5(C)CC[C@@]4(C)[C@]3(C)CC[C@@H]12 [GA, Glycyrrhetinic acid]
